Source: patent US5783557A, “THF-γ2 analogs and pharmaceutical compositions comprising them” (Yeda Research and Development Company Ltd at Weizmann …, priority 1993, dated 1998)
No end group written: not given here. *: point of attachment. iodo = iodine substituent on Tyr (iodo-Tyr), I*

Key:
[1] = tested on: murine cytomegalovirus (MCMV); conditions: MCMV-infected mice; cited from earlier work
[2] = tested on: viral infections of the herpes group; conditions: four patients, same protocol as the pilot study; cited from earlier work
[3] = tested on: patients with reduced circulating T cells; conditions: 4 ng/kg/day i.m., 18 injections in 3 weeks; cited from earlier work
[4] = tested on: GM-CFC from mouse bone marrow; assay: Effect on GM-CFC from mouse bone marrow; assay type: cell-based; design: key: +++: strong enhancement, as THF-γ2; ++ and +: medium and weak enhancement, lower than THF-γ2; ++ and +: medium and weak enhancement, lower than THF-γ2; --no activity; conditions: graded against THF-γ2; Example 1, section 1.2
Protocol: 1.2. Effect of THF-γ2 on GM-CFC From Mouse Bone Marrow. In this second bioassay, the effect of THF-γ2 and its analogs in the enhancement of the number of colonies of GM-CFC in the presence of growth factors is determined. 1.2.1. […] Tibia and femur were removed from BALB/c female mice (6-8 weeks old). The tip of the bone was cut and DMEM with 2.5% FCS was flushed into the bone using a 1 ml syringe with a 26 G needle. This procedure was repeated twice, the cells were then washed in medium and counted in the presence of trypan blue. 1.2.2 Preincubation with THF-γ2. Bone marrow cells suspension was prepared in DMEM with 2.5% FCS at a concentration of 15×10^6 /3.0 ml. THFγ2 diluted in DMEM was added in 20 μl aliquots, control cells received 20 μl DMEM. Cell suspensions in conical tissue culture tubes were incubated at 37° C./8% CO2 for 1 h. Cells were then collected, washed and counted in trypan blue. Cell suspensions were adjusted at 1×10^6 /ml. 1.2.3. GM-CFC assay. Bone marrow cells (4×10^5) are suspended in methylcellulose (0.8%), FCS (20%) and conditioned medium of 14FIL3 CB6 cell line (5%) in a total volume of 4 ml of DMEM. After vigorous mixing, the suspension is seeded into 30 mm diameter plates with the aid of a 3.0 ml syringe (21G needle, in triplicate). […] Colonies are counted using an inverted microscope at low magnification.

mouse spleen cells = assay: ConA-induced IL-2 production; assay type: cell-based; design: key: +++: strong enhancement, as THF-γ2; ++ and +: medium and weak enhancement, lower than THF-γ2; ++ and +: medium and weak enhancement, lower than THF-γ2; --no activity; conditions: graded against THF-γ2; Example 1, section 1.1
Protocol: 1.1. ConA-Induced IL-2 Production
In this bioassay, the effect of THF-γ2 and its analogs in enhancing the secretion of ConA-induced IL-2 from murine spleen cells is determined.
1.1.1. Preparation of cells and preincubation with THF-γ2. Pooled spleen cells (10^7 cell/ml) from five female C3B6F1 (C3HeB/FeJ×C57BL/6J) mice (obtained from Jackson Labs, U.S.A.) aged 6-8 weeks are seeded in 24-well plates (Costar, Cambridge, Mass, U.S.A.). The cells are prepared in medium RPMI-1640 supplemented with penicillin (100 u/ml), streptomycin (100 μg/ml), 2 mM glutamine, 50 μM 2-mercaptoethanol (2-ME) and 20 mM HEPES. THF-γ2 in various concentrations in phosphate buffered saline (PBS), is added in 20 μl aliquots, while control cultures receive 20 μl PBS. The cell cultures are incubated for 20 h in a humidified incubator of 5% CO2 /95% air and 37° C.
1.1.2. Induction of IL-2. ConA (Concanavalin A, ConA, 3×crystalline, Bio-Makor, Ness-Ziona, Israel) is added to the wells in 1 ml fresh medium (as in 1.1.1 above) at suboptimal concentration (1-2.5 μ/ml). […]
1.1.3. […] After incubation of 48 h at 37° C./5% CO2, the proliferation is assessed by the MTT colorimetric assay (T. Mosmann, J. Immunol. Methods 65: 55-63, 1983). Results are expressed in units/ml calculated using a standard murine IL-2 preparation (according to S. Gillis et al., J. Immunol. 120: 2027, 1978).

Row | Substance | interferon synthesis and NK cytotoxicity [1] | side effects [2] | side effects [3] | GM-CFC: Enhancement of the number of GMCFC from mouse bone marrow [4] | IL-2: Enhancement of ConA induced IL2 production in mouse spleen cells (mouse spleen cells)
1 | LEDGPKFL [THF-γ2, Leu-Glu-Asp-Gly-Pro-Lys-Phe-Leu] | did not affect | no deleterious side effects were documented | No side effects attributable to synthetic THF-γ2 were observed |  | 
2 | Iodo-Tyr-Leu-Glu-Asp-Gly-Pro-Lys-Phe-Leu (Y(iodo)LEDGPKFL) [iodo-Y^-1 -THF-γ2] |  |  |  | - | ++
